In patent US9023851B2 (Merck Patent GmbH, priority 2010, dated 2015):

Tests used:
Format in all cases: biochemical
Syk = target: T1, Syk (Homo sapiens, UniProt P43405); experiment: Syk enzyme assay (flash plate / Caliper mobility shift)
T1 construct: purchased BPS Bioscience, CA, USA
Protocol: The kinase assay is performed either as 384-well Flashplate assay (for e.g. Topcount measurement) or as 384-well Image-Flashplate assay (for LEADseeker measurement).
2.5 nM SYK, 400 nM Biotin-Aha-Aha-[…] and 10 μM ATP (spiked with 0.3 μCi 33P-ATP/well) are incubated in a total volume of 50 μl (60 mM Hepes, 10 mM MgCl2, 1.2 mM Dithiothreitol, 0.02% Brij35, 0.1% BSA, pH 7.5) with or without test compound for 1 hours at 30° C. The reaction is stopped with 25 μl 200 mM EDTA. After 30 Min at 30° C. the liquid is removed and each well washed thrice with 100 μl 0.9% sodium chloride solution. Non-specific reaction is determined in presence of 0.1 μM Staurosporine. Radioactivity is measured with Topcount (when using Flashplates) or with LEADseeker (when using Image-Flashplates) respectively. Results (e.g. IC50-values) are calculated with program tools provided by the IT-department (e.g. Symyx Assay Explorer, Genedata Screener).
(§1) Enzymatic Assays Using the Caliper LifeSciences Technology
(§2) The assays described here are performed on the Caliper Life Sciences LC3000 system This technology provides data on enzyme activity via measurement of the relative amounts of phosphorylated or unphosphorylated fluorescently labelled substrate peptide at the end of an enzymatic reaction. These different states of peptide are resolved by applying a potential difference across the sample. The presence of the charged phosphate group on the product (as opposed to the substrate) causes a different peptide mobility between the two peptides. This is visualized by excitation of the fluorescent label on the substrate and product peptides and represented as peaks within the analysis software.
(§3) In order to measure inhibitor activity of kinase inhibitors on this technology, a TTP Mosquito liquid handling instrument is used to place 0.25 ul of the appropriate concentration of inhibitor in 100% DMSO (for a dose response curve calculation) into each well of a 384-well plate. To this reaction components are added to a final volume of 25 ul. The table below indicates the sequences and concentrations for the assays described in this report. Standard components are 1 mM DTT (Sigma, D0632), 1 mM MgCl2 (Sigma, M1028), 100 mM HEPES pH 7.5 (Calbiochem, 391338), 0.015% Brij-35 (Sigma, B4184).
(§4) The reaction is incubated for 90 min at 25 C, and then stopped by the addition of 70 ul of Stop buffer (100 mM HEPES pH 7.5, 0.015% Brij-35, 10 mM EDTA (Sigma, E7889)).
(§5) The plate is read on a Caliper LC 3000 in an Off-Chip mobility shift assay format, on a 12-sipper chip. Unphosphorylated substrate and phosphorylated product peptide resolve as separate peaks allowing direct measurement of percentage of conversion of substrate to product. The percent conversion can be plotted against concentration of inhibitor to produce a sigmoidal dose response curve, from which an IC50 can be calculated using GeneData Condoseo or a similar product. Cellular activity assays

ZAP-70 = target: T2, ZAP-70 (Homo sapiens, UniProt P43403); experiment: Zap70 enzymatic assay (Caliper LifeSciences technology)
T2 construct: purchased BPS Bioscience, CA, USA
T2 sequence (P43403 1-619): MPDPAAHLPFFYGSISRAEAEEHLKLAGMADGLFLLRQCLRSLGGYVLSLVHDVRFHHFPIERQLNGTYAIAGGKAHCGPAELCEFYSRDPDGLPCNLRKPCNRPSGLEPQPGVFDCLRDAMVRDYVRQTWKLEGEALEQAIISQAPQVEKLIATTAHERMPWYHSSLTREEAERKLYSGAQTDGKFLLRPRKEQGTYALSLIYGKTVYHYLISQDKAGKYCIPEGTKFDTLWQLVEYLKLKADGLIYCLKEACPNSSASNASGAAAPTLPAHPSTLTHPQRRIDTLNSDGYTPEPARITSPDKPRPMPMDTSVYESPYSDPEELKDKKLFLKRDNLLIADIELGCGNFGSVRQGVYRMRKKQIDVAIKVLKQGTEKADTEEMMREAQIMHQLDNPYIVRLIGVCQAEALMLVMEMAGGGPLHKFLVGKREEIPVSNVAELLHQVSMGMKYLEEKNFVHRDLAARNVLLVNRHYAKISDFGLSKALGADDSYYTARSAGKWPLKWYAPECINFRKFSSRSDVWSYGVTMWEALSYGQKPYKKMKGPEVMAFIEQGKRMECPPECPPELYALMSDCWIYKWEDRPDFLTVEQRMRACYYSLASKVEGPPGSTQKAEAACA
Protocol: as §1, §2, §3, §4, §5

KDR = target: T3, KDR (Homo sapiens, UniProt P35968); experiment: KDR enzymatic assay (Caliper LifeSciences technology)
T3 construct: purchased BPS Bioscience, CA, USA
Protocol: as §1, §2, §3, §4, §5

T3 sequence (P35968 20-1356): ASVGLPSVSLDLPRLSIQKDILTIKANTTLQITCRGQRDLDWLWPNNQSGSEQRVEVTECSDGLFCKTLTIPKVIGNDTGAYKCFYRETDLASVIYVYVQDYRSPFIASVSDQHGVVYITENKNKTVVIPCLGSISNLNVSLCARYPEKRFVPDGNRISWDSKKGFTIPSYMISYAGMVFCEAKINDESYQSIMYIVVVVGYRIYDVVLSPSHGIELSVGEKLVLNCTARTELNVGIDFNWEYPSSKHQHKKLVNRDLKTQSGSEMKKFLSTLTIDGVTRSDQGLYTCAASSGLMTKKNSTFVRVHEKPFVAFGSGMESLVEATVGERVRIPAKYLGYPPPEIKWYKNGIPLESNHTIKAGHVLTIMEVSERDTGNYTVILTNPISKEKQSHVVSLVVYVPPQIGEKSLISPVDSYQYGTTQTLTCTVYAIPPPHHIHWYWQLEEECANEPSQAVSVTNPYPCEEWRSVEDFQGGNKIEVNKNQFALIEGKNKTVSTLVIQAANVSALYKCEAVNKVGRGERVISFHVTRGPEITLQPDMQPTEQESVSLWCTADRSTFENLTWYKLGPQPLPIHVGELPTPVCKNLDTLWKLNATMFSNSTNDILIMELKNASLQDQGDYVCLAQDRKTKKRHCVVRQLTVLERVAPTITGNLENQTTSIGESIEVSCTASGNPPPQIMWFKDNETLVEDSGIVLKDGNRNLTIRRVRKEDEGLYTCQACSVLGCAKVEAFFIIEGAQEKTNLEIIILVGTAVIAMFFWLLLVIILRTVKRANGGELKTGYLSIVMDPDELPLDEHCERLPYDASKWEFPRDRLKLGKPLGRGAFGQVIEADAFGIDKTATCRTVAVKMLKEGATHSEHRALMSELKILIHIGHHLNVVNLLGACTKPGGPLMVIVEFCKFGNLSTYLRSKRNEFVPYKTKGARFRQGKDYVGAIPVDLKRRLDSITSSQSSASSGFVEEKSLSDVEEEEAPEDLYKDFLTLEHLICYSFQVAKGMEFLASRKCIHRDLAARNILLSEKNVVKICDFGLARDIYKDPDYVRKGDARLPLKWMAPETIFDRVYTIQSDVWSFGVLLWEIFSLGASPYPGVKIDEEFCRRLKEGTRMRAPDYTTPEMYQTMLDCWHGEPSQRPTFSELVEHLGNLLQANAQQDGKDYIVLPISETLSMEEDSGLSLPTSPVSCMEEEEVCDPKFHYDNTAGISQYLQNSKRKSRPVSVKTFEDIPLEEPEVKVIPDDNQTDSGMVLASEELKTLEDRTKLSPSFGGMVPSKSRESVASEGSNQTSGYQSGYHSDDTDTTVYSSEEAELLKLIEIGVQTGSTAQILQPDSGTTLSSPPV

IC50 (Syk) [µM]	IC50 (ZAP-70) [µM]	IC50 (KDR) [µM]	Structure (SMILES)
< 0.3			COc1cc(Nc2nc3c(-c4cnc5ccccc5c4)nccn3n2)cc(OC)c1 [Example C260, (3,5-Dimethoxy-phenyl)-(8-quinolin-3-yl-[1,2,4]triazolo[1,5-a]pyrazin-2-yl)-amine]
3 to 50			COc1cc(Nc2nc3c(NC4CCCCC4N)nccn3n2)cc(OC)c1 (stereo not shown) [Example C54, N^8-(2-Amino-cyclohexyl)-N^2-(3,5-dimethoxy-phenyl)-[1,2,4]triazolo[1,5-a]pyrazine-2,8-diamine]
3 to 50			Clc1nccn2nc(Nc3ccc4cnn(Cc5ccccc5)c4c3)nc12 [Example B9, (1-Benzyl-1H-indazol-6-yl)-(8-chloro-[1,2,4]triazolo[1,5-a]pyrazin-2-yl)-amine]
	3 to 50		Cc1cccc(Nc2nccn3nc(Nc4ccc5cnn(Cc6ccccc6)c5c4)nc23)c1 [Example C84, N^2-(1-Benzyl-1H-indazol-6-yl)-N^8-m-tolyl-[1,2,4]triazolo[1,5-a]pyrazine-2,8-diamine]
3 to 50			Cc1cccc(Nc2nc3c(Nc4cccc(C(F)(F)F)c4)nccn3n2)c1 [Example C73, N^2-m-Tolyl-N^8-(3-trifluoromethyl-phenyl)-[1,2,4]triazolo[1,5-a]pyrazine-2,8-diamine]
3 to 50			Cn1ccnc1Sc1ccc(Nc2nccn3nc(Nc4cccc(C(F)(F)F)c4)nc23)cc1Cl [Example C68, N^8-[3-Chloro-4-(1-methyl-1H-imidazol-2-ylsulfanyl)-phenyl]-N^2-(3-trifluoromethyl-phenyl)-[1,2,4]triazolo[1,5-a]pyrazine-2,8-diamine]
3 to 50		3 to 50	COCCCNc1nccn2nc(Nc3ccccc3)nc12 [Example C53, N^8-(3-Methoxy-propyl)-N^2-phenyl-[1,2,4]triazolo[1,5-a]pyrazine-2,8-diamine]
0.3 to 3		3 to 50	COc1cc(OC)cc(-c2nccn3nc(Nc4cc(C)cc(C)c4)nc23)c1 [Example C15, [8-(3,5-Dimethoxy-phenyl)-[1,2,4]triazolo[1,5-a]pyrazin-2-yl]-(3,5-dimethyl-phenyl)-amine]
	3 to 50		COc1cc(Nc2nccn3nc(Nc4ccc5cnn(Cc6ccccc6)c5c4)nc23)cc(OC)c1 [Example C82, N^2-(1-Benzyl-1H-indazol-6-yl)-N^8-(3,5-dimethoxy-phenyl)-[1,2,4]triazolo[1,5-a]pyrazine-2,8-diamine]
0.3 to 3		0.3 to 3	c1ccc(Nc2nc3c(-c4ccccc4)nccn3n2)cc1 [Example C10, Phenyl-(8-phenyl-[1,2,4]triazolo[1,5-a]pyrazin-2-yl)-amine]
3 to 50			Cc1cccc(Nc2nc3c(Nc4ccc5c(c4)NC(=O)C(F)(F)O5)nccn3n2)c1 [Example C71, 2,2-Difluoro-6-(2-m-tolylamino-[1,2,4]triazolo[1,5-a]pyrazin-8-ylamino)-4H-benzo[1,4]oxazin-3-one]
3 to 50		3 to 50	Cc1cccc(Nc2nc3c(NCCN)nccn3n2)c1 [Example C45, N^8-(2-Amino-ethyl)-N^2-m-tolyl-[1,2,4]triazolo[1,5-a]pyrazine-2,8-diamine]
0.3 to 3		3 to 50	COc1cc(OC)cc(-c2nccn3nc(Nc4cccc(C)c4)nc23)c1 [Example C17, [8-(3,5-Dimethoxy-phenyl)-[1,2,4]triazolo[1,5-a]pyrazin-2-yl]-m-tolyl-amine]
3 to 50		3 to 50	Cc1cc(C)cc(Nc2nc3c(NC4CCCCC4N)nccn3n2)c1 (stereo not shown) [Example C56, N^8-(2-Amino-cyclohexyl)-N^2-(3,5-dimethyl-phenyl)-[1,2,4]triazolo[1,5-a]pyrazine-2,8-diamine]
0.3 to 3			O=C1Nc2cc(Nc3nc4c(Cl)nccn4n3)ccc2OC1(F)F [Example B7, 6-(8-Chloro-[1,2,4]triazolo[1,5-a]pyrazin-2-ylamino)-2,2-difluoro-4H-benzo[1,4]oxazin-3-one]
3 to 50		3 to 50	NCCNc1nccn2nc(Nc3ccccc3)nc12 [Example C49, N^8-(2-Amino-ethyl)-N^2-phenyl-[1,2,4]triazolo[1,5-a]pyrazine-2,8-diamine]
0.3 to 3			Cc1c(N)cccc1-c1nccn2nc(Nc3ccc(N4CCOCC4)cc3)nc12 [Example C293, [8-(3-Amino-2-methyl-phenyl)-[1,2,4]triazolo[1,5-a]pyrazin-2-yl]-(4-morpholin-4-yl-phenyl)-amine]
	3 to 50		Cc1cc(C)cc(Nc2nc3c(Nc4ccc5c(n4)NC(=O)C(C)(C)O5)nccn3n2)c1 [Example C60, 6-[2-(3,5-Dimethyl-phenylamino)-[1,2,4]triazolo[1,5-a]pyrazin-8-ylamino]-2,2-dimethyl-4H-pyrido[3,2-b][1,4]oxazin-3-one]
3 to 50		3 to 50	COCCCNc1nccn2nc(Nc3cc(C)cc(C)c3)nc12 [Example C37, N^2-(3,5-Dimethyl-phenyl)-N^8-(3-methoxy-propyl)-[1,2,4]triazolo[1,5-a]pyrazine-2,8-diamine]
3 to 50		3 to 50	Cc1cccc(Nc2nc3c(NC4CCCCC4N)nccn3n2)c1 (stereo not shown) [Example C57, N^8-(2-Amino-cyclohexyl)-N^2-m-tolyl-[1,2,4]triazolo[1,5-a]pyrazine-2,8-diamine]
< 0.3			COc1cc(Nc2nc3c(-c4cc(OC)cc(OC)c4)nccn3n2)cc(OC)c1 [Example C16, (3,5-Dimethoxy-phenyl)-[8-(3,5-dimethoxy-phenyl)-[1,2,4]triazolo[1,5-a]pyrazin-2-yl]-amine]
0.3 to 3			COc1ccc(Nc2nc3c(-c4cccc(NS(C)(=O)=O)c4)nccn3n2)cn1 [Example C274, N-{3-[2-(6-Methoxy-pyridin-3-ylamino)-[1,2,4]triazolo[1,5-a]pyrazin-8-yl]-phenyl}-methanesulfonamide]
3 to 50			FC(F)(F)c1cccc(Nc2nc3c(-c4ccc(N5CCOCC5)cc4)nccn3n2)c1 [Example C12, [8-(4-Morpholin-4-yl-phenyl)-[1,2,4]triazolo[1,5-a]pyrazin-2-yl]-(3-trifluoromethyl-phenyl)-amine]
0.3 to 3			COc1ccc(Nc2nc3c(-c4cccc(CN)c4)nccn3n2)cn1 [Example C254, [8-(3-Aminomethyl-phenyl)-[1,2,4]triazolo[1,5-a]pyrazin-2-yl]-(6-methoxy-pyridin-3-yl)-amine]
0.3 to 3			Cc1cc(C)cc(Nc2nc3c(-c4ccccc4)nccn3n2)c1 [Example C7, (3,5-Dimethyl-phenyl)-(8-phenyl-[1,2,4]triazolo[1,5-a]pyrazin-2-yl)-amine]
0.3 to 3		3 to 50	FC(F)(F)c1cccc(Nc2nc3c(-c4ccccc4)nccn3n2)c1 [Example C9, (8-Phenyl-[1,2,4]triazolo[1,5-a]pyrazin-2-yl)-(3-trifluoromethyl-phenyl)-amine]
0.3 to 3			COc1ccc(Nc2nc3c(-c4cnc5ccccc5c4)nccn3n2)cn1 [Example C262, (6-Methoxy-pyridin-3-yl)-(8-quinolin-3-yl-[1,2,4]triazolo[1,5-a]pyrazin-2-yl)-amine]
